Measurements taken from patent US20180265934A1, “COINCIDENCE REPORTER GENE SYSTEM” (The United States of America, as represented by the …, priority 2013, published 2018).
Structures can show the parent of a compound that is named as a salt. Where two headings read alike, the source gives them in different places. Where a SMILES comes first, the peptide text is derived from it. The star is where a group is joined. Cbz = O=C(OCc1ccccc1)*

Experiments:
[1] = system: cAMP-response element (CRE) / CREB pathway; test: LOPAC1280 qHTS, 4×CRE-driven FLuc-P2A-RLuc coincidence reporter (pCI-6.24) in GripTite 293 MSR cells; assay type: cell-based
Protocol: This protocol measures bioluminescence derived from both FLuc and RLuc expression from a single assay. […] Sixteen hours after transfection, cells were trypsinized and then dispensed at 2,000 cells/20 μL/well in 384-well tissue culture treated white/solid bottom plates (Greiner Bio-One North America, Monroe, N.C.). The assay plates were incubated at 37° C. for 10 hours before adding the DUAL-GLO detection reagent (Promega). Luminescence from luciferase activity was detected by using a VIEWLUX plate reader (PerkinElmer, Waltham, Mass.).
Sixteen hours after transfection, cells were trypsinized and then dispensed at 500 cells/4 μL/well in 1,536-well tissue culture treated white/solid bottom plates (Greiner Bio-One North America) using a multidrop combi dispenser (Thermo Fisher Scientific). […] The assay plates were incubated at 37° C. for 10 hours before adding the DUAL-GLO detection reagent (3.5 μL+3.5 μL for each well) (Promega). Luminescence from luciferase activity was detected by using VIEWLUX (PerkinElmer). Each experimental plate contained forskolin as a positive control and DMSO as a negative control. Percentage activity was defined as the percentage signal relative to forskolin (100%) and DMSO (0%).

[2] = system: PARK2 (Parkin) gene expression; test: Compound library screening, Parkin coincidence reporter cell line (FLuc-P2A-NLuc in PARK2 locus, BE(2)-M17 cells), 1536-well; assay type: cell-based, human; settings: 24 h, titration
Protocol: Construction of the Parkin coincidence reporter cell line by TALEN-mediated genome editing was carried out as follows. To generate a double-strand cleavage of the genomic DNA in the first codon of the PARK2 gene, constructs encoding transcription activator-like effector nuclease (TALEN) pairs (Right and Left) encoding components of the heterodimeric FokI nuclease were generated as described by Huang et al., Nature Biotechnology, 29: 699-700 (2011). The TALEN pair was designed to generate a double-strand cleavage at or near the first translation codon (ATG) within the Parkin gene. These constructs were transfected with Lipofectamine LTX (Life Technologies) into BE(2)-M17 cells (ATCC) […] along with a GFP-expressing marker plasmid and the coincidence reporter donor plasmid. After 48 hours of incubation in a tissue culture incubator, GFP-positive cells were sorted by FACS analysis and single clones were isolated and expanded. Once sufficient cell populations for each clone were achieved, analysis of correct genomic insertion of the Fluc-P2A-NLuc-PEST-PolyA coincidence reporter cassette that replaced the “ATGATAG” (SEQ ID NO: 362) sequence at the […] of the PARK2 gene exon 1 was ascertained by PCR and DNA sequencing of genomic DNA preparations (QIAGEN).
Compound library screening in 1536-well plates was carried out as follows. The Parkin coincidence reporter cell line was seeded at a density of 2000 cell/well into white, solid bottom, tissue-culture treated (Greiner Bio-One), 1536-well microplates in a total of 5 μL/well of culture medium. After a 16 hour incubation in a tissue-culture incubator, a compound pin tool (Wako) was used to transfer 20 nL of compound dissolved in DMSO for library plates to the assay plates. Compounds were present in either a 6 or 12-point titration in the library plates. DMSO vehicle, CCCP, and PTC-124 were also added to the designated control well. After a 24 hour incubation in the tissue culture incubator, the volume in each well of both plates was reduced to 2 μL with a microplate aspiration system (BioTek) and then 2 μL of Firefly Luciferase assay reagent (Promega) was added to every well each plate and luminescent signal from each well of each plate was measured on a VIEWLUX plate reader (PerkinElmer). Following the first read, 2 μL of NanoLuc assay reagent (Promega) including a proprietary firefly luciferase inhibitor (to quench the firefly reaction) was added to every well of each plate. After a second 15 minute incubation at room temperature, the NanoLuc signal from each well of each plate was measured on the VIEWLUX. Raw luminescent signal is expressed as a % of the positive control (10 uM CCCP for NanoLuc and 500 nM PTC-124 for FLuc).

[3] = system: cAMP-response element (CRE), adenylyl cyclase signaling; test: Compound test, 24-point titration, 4×CRE-driven FLuc-P2A-RLuc (pCI-6.24), 384-well; assay type: cell-based; settings: PTC124 on FLuc, BTS on RLuc; relative to non-treated control
Protocol: For the compound test, forskolin, PTC124 and BTS were prepared in a 24-point intraplate titration format and pre-diluted in the cell culture medium. Purified pCI-6.24 construct was transfected into GRIPTITE 293 MSR cells (Life Technologies). Sixteen hours post transfection, cells were trypsinized and then dispensed at 2,000 cells/15 μL/well in 384-well tissue culture treated white/solid bottom plates (Greiner Bio-One North America). Five μL of pre-diluted compound was transferred into assay plates, resulting in a final concentration ranging from 0.027 nM to 227 μM (forskolin) and 0.011 nM to 91 μM (PTC124 and BTS). The assay plates were incubated at 37° C. for 10 hours. FLuc and RLuc activities were then detected using DUAL-GLO reagent (Promega) and a VIEWLUX plate reader (PerkinElmer). Concentration-response curves and concentrations of half-maximal activity (EC50) for each compound were generated by using PRISM 4 software (GraphPad Software, Inc., La Jolla, Calif.).

[4] = Table 5, coincident activators; FLuc readout, 10 h, ~4 nM to 57 μM; read-out: FLuc EC50
[5] = Table 5, coincident activators; RLuc readout, 10 h, ~4 nM to 57 μM; read-out: RLuc EC50
[6] = Table 6, compounds activating RLuc only; RLuc readout, 10 h; read-out: RLuc EC50
[7] = GripTite 293 MSR, 10 h, Table 5, coincident activators; FLuc readout, 10 h, ~4 nM to 57 μM; read-out: FLuc EC50
[8] = GripTite 293 MSR, 10 h, Table 5, coincident activators; RLuc readout, 10 h, ~4 nM to 57 μM; read-out: RLuc EC50
[9] = GripTite 293 MSR, 10 h, Table 6, compounds activating RLuc only; RLuc readout, 10 h; read-out: RLuc EC50
[10] = GripTite 293 MSR; Table 6, compounds activating RLuc only; RLuc readout, 10 h; read-out: RLuc EC50

Row | Structure (SMILES) | Ratio F/R ([1]; FLuc EC50 / RLuc EC50, Table 5) | EC50 [1, 7] [µM] | EC50 [1, 8] [µM] | further results
1 | CCCCC#Cc1nc(NC)c2ncn([C@@H]3O[C@H](CO)[C@@H](O)[C@H]3O)c2n1 [compound 14, HEMADO] | 1.78 | – | – | EC50 [1, 4]: 2.69 µM; EC50 [1, 5]: 1.51 µM
2 | C#CCOC(=O)C1=CCCN(C)C1 [cpd 18, Arecaidine propargyl ester hydrobromide (APE)] | 1.16 | – | – | EC50 [1, 4]: 3.59 µM; EC50 [1, 5]: 3.09 µM; FLuc and RLuc signal outputs in the screen ([1]; qHTS, both reporters): coincident FLuc and RLuc signal outputs
3 | OC[C@H]1O[C@H](n2cnc3c(N[C@H]4CCC[C@@H]4O)ncnc32)[C@H](O)[C@@H]1O [compound 7, GR 79236X] | 0.85 | – | – | EC50 [1, 4]: 2.69 µM; EC50 [1, 5]: 3.16 µM
4 | NCCNS(=O)(=O)c1cccc2c(Cl)cccc12 [cpd 22, A3 hydrochloride] | – | – | – | EC50 [1, 6]: 15.8 µM
5 | NC(=S)c1ccc[n+]([C@@H]2OC(COP(=O)([O-])OP(=O)(O)OC[C@H]3O[C@@H](n4cnc5c(N)ncnc54)[C@H](OP(=O)(O)O)[C@@H]3O)C(O)C2O)c1 (stereo in doubt) [compound 15, Thio-NADP sodium] | 0.95 | – | – | EC50 [1, 4]: 2.39 µM; EC50 [1, 5]: 2.51 µM
6 | C[C@H](Cc1ccccc1)Nc1ncnc2c1ncn2[C@@H]1O[C@H](CO)[C@@H](O)[C@H]1O [cpd 1, R(−)-N6-(2-Phenylisopropyl)adenosine] | 3.32 | – | – | EC50 [1, 4]: 9.37 µM; EC50 [1, 5]: 2.82 µM
7 | CCNC(=O)[C@H]1O[C@@H](n2cnc3c(N)ncnc32)[C@H](O)[C@@H]1O [compound 13, 5′-N-Ethylcarboxamidoadenosine] | 0.56 | – | – | EC50 [1, 4]: 0.3 µM; EC50 [1, 5]: 0.54 µM
8 | NC(=O)C1=CN([C@@H]2O[C@H](COP(=O)(O)OP(=O)(O)OC[C@H]3O[C@@H](n4cnc5c(N)ncnc54)[C@H](OP(=O)(O)O)[C@@H]3O)[C@@H](O)[C@H]2O)C=CC1 [compound 16, NADPH tetrasodium] | 0.81 | – | – | EC50 [1, 4]: 18.2 µM; EC50 [1, 5]: 22.4 µM
9 | Nc1nc(Cl)nc2c1ncn2[C@@H]1O[C@H](COP(=O)([O-])OP(=O)([O-])OP(=O)([O-])[O-])[C@@H](O)[C@H]1O.[Na+].[Na+].[Na+].[Na+] [compound 17, 2-Chloroadenosine triphosphate tetrasodium] | 2.96 | 11.5 | 3.89 | –
10 | O=C(c1ccc(OCCN2CCCCC2)cc1)c1c(-c2ccc(O)cc2)sc2cc(O)ccc12 [cpd 26, Raloxifene hydrochloride] | – | – | – | EC50 [1, 9]: 12 µM
11 | Nc1ccc(CCNc2ncnc3c2ncn3[C@@H]2O[C@H](CO)[C@@H](O)[C@H]2O)cc1 [compound 8, N6-2-(4-Aminophenyl)ethyladenosine] | 1.56 | 1.45 | 0.93 | –
12 | OC[C@H]1O[C@@H](n2cnc3c(Nc4ccccc4)ncnc32)[C@H](O)[C@@H]1O [cpd 2, N6-Phenyladenosine] | 0.87 | 12.7 | 14.6 | –
13 | CC1=NS(=O)(=O)c2cc(Cl)ccc2N1 [cpd 24, Diazoxide] | – | – | – | EC50 [1, 9]: 9.15 µM
14 | CC(C)C[C@@H](C=O)NC(=O)[C@H](CC(C)C)NC(=O)[C@H](CC(C)C)NC(=O)OCc1ccccc1 [MG-132] (Cbz-Leu-Leu-Leu-aldehyde) | – | – | – | coincident reporter response (FLuc and NLuc) [2]: do not elicit a coincident reporter response; signal obtained through reporter interference [2]: NLuc signal is obtained through reporter interference
15 | Oc1ccc(C=Cc2cc(O)cc(O)c2)cc1 [Resveratrol] | – | – | – | coincident reporter response (FLuc and NLuc) [2]: do not elicit a coincident reporter response; signal obtained through reporter interference [2]: FLuc signal is obtained through reporter interference
16 | N#CC(=C(/N)Sc1ccccc1N)/C(C#N)=C(\N)Sc1ccccc1N [cpd 25, U0126] | – | – | – | EC50 [1, 10]: 8.49 µM
17 | Cc1ccc(S(=O)(=O)NCc2ccccc2)cc1 [BTS] | – | – | – | effect on reporter activity by reporter stabilization [3]: increase the activity of the reporters
18 | Nc1nc(Cl)nc2c1ncn2[C@@H]1O[C@H](CO)[C@@H](O)[C@H]1O [compound 11, 2-Chloroadenosine] | 1.13 | 0.43 | 0.38 | –
19 | NC(=O)COc1c(F)cc(SCCNS(=O)(=O)c2ccccc2)cc1F [cpd 21, 2,6-Difluoro-4-[2-(phenylsulfonylamino)ethylthio]phenoxyacetamide] | – | – | – | EC50 [1, 10]: 21.4 µM
20 | CNc1ncnc2c1ncn2[C@@H]1O[C@H](CO)[C@@H](O)[C@H]1O [compound 12, N6-Methyladenosine] | 1.26 | 16.7 | 13.3 | –
21 | CNC(=O)[C@H]1O[C@@H](n2cnc3c(NCc4ccc(N)cc4)ncnc32)[C@H](O)[C@@H]1O [compound 9, AB-MECA] | 3.51 | – | – | EC50 [1, 4]: 1.51 µM; EC50 [1, 5]: 0.43 µM
22 | OC[C@H]1O[C@@H](n2cnc3c(NC4CCCCC4)ncnc32)[C@H](O)[C@@H]1O [compound 5, N6-Cyclohexyladenosine] | 0.67 | 16.9 | 25.1 | –
23 | CNc1cc(NS(=O)(=O)c2ccc(N)cc2)nc(NC)n1 [compound 20, Ro 04-6790 hydrochloride] | – | – | – | EC50 [1, 6]: 2.05 µM
24 | COc1ccc(Cl)cc1C(=O)NCCc1ccc(S(=O)(=O)NC(=O)NC2CCCCC2)cc1 [cpd 23, Glybenclamide] | – | – | – | EC50 [1, 9]: 30.4 µM
25 | Nc1nc(Nc2ccccc2)nc2c1ncn2[C@@H]1O[C@H](CO)[C@@H](O)[C@H]1O [compound 4, 2-Phenylaminoadenosine] | 0.95 | 10.7 | 11.2 | –
26 | O=c1c(O)c(-c2ccc(O)c(O)c2)oc2cc(O)cc(O)c12 [Quercetin] | – | – | – | coincident reporter response (FLuc and NLuc) [2]: elicits a coincidence response from both FLuc and NLuc; modulation of endogenous Parkin expression [2]: genuine modulator of endogenous Parkin expression
27 | OC[C@H]1O[C@@H](n2cnc3c(NC4CCCC4)ncnc32)[C@H](O)[C@@H]1O [compound 6, N6-Cyclopentyladenosine] | 0.75 | 0.95 | 1.26 | –
28 | Cc1ccccc1CNc1ncnc2c1ncn2[C@@H]1O[C@H](CO)[C@@H](O)[C@H]1O [compound 3, Metrifudil] | 2.20 | 1.34 | 0.61 | –
